This experiment addresses β-secretase 1 (BACE1) (Homo sapiens, UniProt P56817). Put plainly: in vitro fluorogenic peptide cleavage assay, dose response. The format is biochemical.

In article PMC3953730 (FEBS Open Bio, 2014) one finds IC50 data, which are given here for one molecule.

SMILES strings stand for the structures.

β-secretase 1 (BACE1), sequence (P56817 46-457): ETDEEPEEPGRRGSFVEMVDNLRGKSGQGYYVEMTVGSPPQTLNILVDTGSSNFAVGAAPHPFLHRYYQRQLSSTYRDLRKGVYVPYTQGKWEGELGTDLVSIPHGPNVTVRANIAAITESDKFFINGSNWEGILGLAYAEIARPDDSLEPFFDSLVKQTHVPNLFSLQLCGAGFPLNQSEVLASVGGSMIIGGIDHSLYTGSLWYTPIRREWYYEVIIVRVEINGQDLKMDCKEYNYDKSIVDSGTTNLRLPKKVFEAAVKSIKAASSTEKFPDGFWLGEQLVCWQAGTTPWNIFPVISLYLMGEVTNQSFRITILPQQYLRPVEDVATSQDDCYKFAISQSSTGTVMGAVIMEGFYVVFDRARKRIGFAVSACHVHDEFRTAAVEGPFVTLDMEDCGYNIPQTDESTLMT

For `O=P(O)(O)O[C@H]1[C@H](OP(=O)(O)O)[C@@H](OP(=O)(O)O)[C@H](OP(=O)(O)O)[C@@H](OP(=O)(O)O)[C@H]1OP(=O)(O)O` [IP6, myo-inositol hexakisphosphate], the concentration for half-maximal inhibition (IC50) was roughly 250 nM.
